Results as given in ChEMBL document CHEMBL5505990, “Novel aroyl guanidine anti-trypanosomal compounds that exert opposing effects on parasite energy metabolism” (Eur J Med Chem, 2024).
Active and inactive are the calls of the source. The calls are words filed in the database; no cut-off is given here.

How the values were obtained:
[1] = test system: Trypanosoma brucei brucei; experiment: Effect on stearoyl-CoA level in bloodstream Trypanosoma brucei brucei 427 assessed as increase in pyruvate level at 1 uM incubated for 5 hrs; type: functional
[2] = test system: Trypanosoma brucei brucei; experiment: Induction of glycolysis in bloodstream Trypanosoma brucei brucei 427 assessed as increase in succinate level at 1 uM incubated for 5 hrs; type: functional
[3] = test system: Trypanosoma brucei brucei; experiment: Upregulation of carnitine to acetyl-carnitine ratio in bloodstream Trypanosoma brucei brucei 427 assessed as increase in pyruvate level at 1 uM incubated for 5 hrs; type: functional
[4] = test system: Trypanosoma brucei brucei; experiment: Induction of glycolysis in bloodstream Trypanosoma brucei brucei 427 assessed as increase in glycerol level at 1 uM incubated for 5 hrs; type: functional
[5] = test system: Trypanosoma brucei brucei; experiment: Disruption of nucleotide metabolism in bloodstream Trypanosoma brucei brucei 427 assessed as fold increase in AMP at 1 uM incubated for 5 hrs; type: functional
[6] = test system: Trypanosoma brucei brucei; experiment: Upregulation of glycolytic flux in bloodstream Trypanosoma brucei brucei 427 assessed as increase in pyruvate level at 1 uM incubated for 5 hrs; type: functional
[7] = test system: Trypanosoma brucei brucei; experiment: Disruption of nucleotide metabolism in bloodstream Trypanosoma brucei brucei 427 assessed as depletion of ATP at 1 uM incubated for 5 hrs; type: functional, organism-based
[8] = test system: Trypanosoma brucei brucei; experiment: Disruption of nucleotide metabolism in bloodstream Trypanosoma brucei brucei 427 assessed as depletion of deoxy-UTP at 1 uM incubated for 5 hrs; type: functional, organism-based
[9] = test system: Trypanosoma brucei brucei; experiment: Disruption of nucleotide metabolism in bloodstream Trypanosoma brucei brucei 427 assessed as depletion of UTP at 1 uM incubated for 5 hrs; type: functional, organism-based
[10] = test system: Trypanosoma brucei brucei; experiment: Anti-trypanosomal activity against Trypanosoma brucei brucei at 10 uM relative to control; type: functional
[11] = test system: Trypanosoma brucei brucei; experiment: Effect on free carnitine level in bloodstream Trypanosoma brucei brucei 427 assessed as increase in pyruvate level at 1 uM incubated for 5 hrs; type: functional
[12] = test system: Trypanosoma brucei brucei; experiment: Downregulation of NADPH level in bloodstream Trypanosoma brucei brucei 427 assessed as increase in pyruvate level at 1 uM incubated for 5 hrs; type: functional
[13] = test system: Trypanosoma brucei brucei; experiment: Effect on acetyl-carnitine level in bloodstream Trypanosoma brucei brucei 427 assessed as increase in pyruvate level at 1 uM incubated for 5 hrs; type: functional
[14] = test system: Trypanosoma brucei brucei; experiment: Induction of glycolysis in bloodstream Trypanosoma brucei brucei 427 assessed as increase in pyruvate level at 1 uM incubated for 5 hrs; type: functional
[15] = test system: Trypanosoma brucei brucei; experiment: Disruption of nucleotide metabolism in bloodstream Trypanosoma brucei brucei 427 assessed as depletion of deoxy-GTP at 1 uM incubated for 5 hrs; type: functional, organism-based
[16] = test system: Trypanosoma brucei brucei; experiment: Effect on free CoA level in bloodstream Trypanosoma brucei brucei 427 assessed as increase in pyruvate level at 1 uM incubated for 5 hrs; type: functional
[17] = test system: Trypanosoma brucei brucei; experiment: Disruption of nucleotide metabolism in bloodstream Trypanosoma brucei brucei 427 assessed as depletion of deoxy-ATP at 1 uM incubated for 5 hrs; type: functional, organism-based
[18] = test system: Trypanosoma brucei brucei; experiment: Disruption of nucleotide metabolism in bloodstream Trypanosoma brucei brucei 427 assessed as depletion of GTP at 1 uM incubated for 5 hrs; type: functional, organism-based
[19] = test system: Trypanosoma brucei brucei; experiment: Downregulation of 6-phosphogluconate level in bloodstream Trypanosoma brucei brucei 427 assessed as increase in pyruvate level at 1 uM incubated for 5 hrs; type: functional
[20] = test system: Trypanosoma brucei brucei; experiment: Effect on palmitoyl-CoA level in bloodstream Trypanosoma brucei brucei 427 assessed as increase in pyruvate level at 1 uM incubated for 5 hrs; type: functional
[21] = test system: Trypanosoma brucei brucei; experiment: Effect on acetyl-CoA level in bloodstream Trypanosoma brucei brucei 427 assessed as increase in pyruvate level at 1 uM incubated for 5 hrs; type: functional
[22] = test system: Trypanosoma brucei brucei; experiment: Disruption of nucleotide metabolism in bloodstream Trypanosoma brucei brucei 427 assessed as depletion of CTP at 1 uM incubated for 5 hrs; type: functional, organism-based
[23] = test system: Trypanosoma brucei brucei; experiment: Disruption of nucleotide metabolism in bloodstream Trypanosoma brucei brucei 427 assessed as depletion of deoxy-CTP at 1 uM incubated for 5 hrs; type: functional, organism-based
[24] = test system: Trypanosoma brucei brucei; experiment: Disruption of nucleotide metabolism in bloodstream Trypanosoma brucei brucei 427 assessed as accumulation of NMP at 1 uM incubated for 5 hrs; type: functional, organism-based
[25] = test system: Trypanosoma brucei brucei; experiment: Anti-trypanosomal activity against Trypanosoma brucei brucei; type: functional, organism-based
[26] = Selectivity ratio of IC50 for HEK293 cells to IC50 for Trypanosoma brucei brucei; type: toxicity; conditions: human, read-out: Ratio IC50
[27] = test system: Trypanosoma brucei brucei; experiment: Disruption of nucleotide metabolism in bloodstream Trypanosoma brucei brucei 427 assessed as accumulation of AMP at 1 uM incubated for 5 hrs; type: functional, organism-based
[28] = test system: Trypanosoma brucei brucei; experiment: Effect on carbohydrate metabolism in bloodstream Trypanosoma brucei brucei 427 at 1 uM incubated for 5 hrs by pathway enrichment analysis; type: functional
[29] = Cytotoxicity against HEK293 cells; type: toxicity, cell-based; conditions: human
[30] = test system: Trypanosoma brucei brucei; experiment: Disruption of nucleotide metabolism in bloodstream Trypanosoma brucei brucei 427 assessed as accumulation of nucleosides at 1 uM incubated for 5 hrs; type: functional, organism-based
[31] = test system: Trypanosoma brucei brucei; experiment: Opposing effect on metabolism in bloodstream Trypanosoma brucei brucei 427 at 1 uM incubated for 5 hrs by LC-MS based principal component analysis; type: functional, organism-based
[32] = test system: Trypanosoma brucei brucei; experiment: Disruption of nucleotide metabolism in bloodstream Trypanosoma brucei brucei 427 assessed as accumulation of purine/pyrimidine base forms at 1 uM incubated for 5 hrs; type: functional, organism-based
[33] = test system: Trypanosoma brucei brucei; experiment: Disruption of nucleotide metabolism in bloodstream Trypanosoma brucei brucei 427 assessed as accumulation of NDP at 1 uM incubated for 5 hrs; type: functional, organism-based
[34] = test system: Trypanosoma brucei brucei; experiment: Disruption of nucleotide metabolism in bloodstream Trypanosoma brucei brucei 427 assessed as depletion of NTP at 1 uM incubated for 5 hrs; type: functional, organism-based
[35] = test system: Trypanosoma brucei brucei; experiment: Effect on nucleotide metabolism in bloodstream Trypanosoma brucei brucei 427 at 1 uM incubated for 5 hrs by pathway enrichment analysis; type: functional
[36] = test system: Trypanosoma brucei brucei; experiment: Anti-trypanosomal activity against Trypanosoma brucei brucei at 42 uM relative to control; type: functional
[37] = Cytotoxicity against HEK293 cells assessed as inhibition of cell viability at 83 uM relative to control; type: toxicity, cell-based; conditions: human, read-out: INH
[38] = test system: Trypanosoma brucei brucei; experiment: Disruption of nucleotide metabolism in bloodstream Trypanosoma brucei brucei 427 assessed as depletion of ATP at 1 uM incubated for 5 hrs relative to control; type: functional
[39] = test system: Trypanosoma brucei brucei; experiment: Anti-trypanosomal activity against Trypanosoma brucei brucei incubated for 48 hrs by alamar blue assay; type: functional, organism-based

| Compound | Activity [1] | Activity [2] | Activity [3] | Activity [4] | Activity [6] | Activity [7] | Activity [8] | Activity [11] | Activity [12] | Activity [13] | Activity [14] | Activity [16] | Activity [19] | Activity [20] | Activity [21] | Activity [24] | selectivity ratio [26] | Activity [30] | Activity [32] | Activity [33] | also measured |
| --- | --- | --- | --- | --- | --- | --- | --- | --- | --- | --- | --- | --- | --- | --- | --- | --- | --- | --- | --- | --- | --- |
| Cc1ccc(/N=C(\NCCN2CCOCC2)NC(=O)c2ccccc2)c(Cl)c1 | Active | Active | Active | Active | Active | Active | Active | Active | Active | Active | Active | Active | Active | Active | inactive |  |  |  |  |  | fold change (FC) [5]: 7; Activity [9]: Active; inhibition at 10 µM [10]: 54%; Activity [15]: Active; Activity [17]: Active; Activity [18]: Active; Activity [22]: Active; Activity [23]: Active |
| CCc1ccccc1/N=C(\NCCN1CCOCC1)NC(=O)c1ccc(C)cc1 | inactive | inactive | inactive | inactive | inactive | inactive |  | inactive | inactive | inactive | inactive | inactive | inactive | inactive | Active | inactive | > 19 | inactive | inactive | inactive | IC50 [25]: 4.4 µM; Activity [27]: inactive; Activity [28]: Active; IC50 [29]: > 83 µM; Activity [31]: Active; Activity [34]: inactive; Activity [35]: Active |
| CCc1ccccc1/N=C(\NCCN1CCOCC1)NC(=O)c1cccc(Cl)c1 |  |  |  |  |  |  |  |  |  |  |  |  |  |  |  |  |  |  |  |  | inhibition at 42 µM [36]: 68%; cytotoxicity at 83 µM [37]: 67%; inhibition at 10 µM [10]: 87% |
| Cc1cc(Br)ccc1/N=C(\NCCN1CCOCC1)NC(=O)c1ccccc1 | Active | Active | Active | Active | Active |  | Active | Active | Active | Active | Active | Active | Active | Active | inactive | Active | > 33 | Active | Active | Active | IC50 [25]: 2.5 µM; Activity [38]: 25%; Activity [9]: Active; Activity [28]: Active; IC50 [29]: > 83 µM; Activity [15]: Active; Activity [17]: Active; Activity [18]: Active; Activity [31]: Active; Activity [22]: Active; Activity [23]: Active; Activity [35]: Active |
| CCc1ccccc1/N=C(\NCCN1CCOCC1)NC(=O)c1ccccc1 | inactive | inactive | inactive | inactive | inactive |  |  | inactive | inactive | inactive | inactive | inactive | inactive | inactive | Active | inactive | ≥ 29 | inactive | inactive | inactive | IC50 [39]: 2.6 µM; Activity [34]: inactive |
